Drawing on the METLIN SMRT retention time set (Domingo-Almenara et al. 2019), this text covers RP-LC retention time for 60 molecules.

The nature of this series: gradient 5% acetonitrile 3 min, to 50% in 2 min, to 85% in 15 min, held 3 min, 100 µL/min. Particulars: column: Zorbax Extend-C18 2.1 x 50 mm; eluents: water / acetonitrile, 0.1% formic acid. The method, boiled down:
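Standards, all pure, were combined into mixtures of ~100 molecules and run at 100 μL/min on a Zorbax Extend-C18 column (2.1 × 50 mm, 1.8 μm) with water and acetonitrile, each containing 0.1% formic acid. A coupled quadrupole time-of-flight mass spectrometer operated in positive and negative ionization mode. Retention time values come from computationally picked adduct peaks, each inspected manually.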
As for `CCCNC(=O)CC1=C2CCCCC2NC1=O` (stereo not given), the RP-LC retention time came to 618 s.
Turning to `CCN1C(=O)COc2ccc(-c3noc(-c4cccc5[nH]ccc45)n3)cc21`, the RP-LC retention time was 998 s.
`CC(C)CC(NC(=O)c1cccs1)C(=O)Nc1nc2ccccc2[nH]1` (stereo not given) came in with an RP-LC retention time of 703 s.
`CN1CCN(c2cc(-c3nc(-c4ccccc4)no3)c3ccccc3n2)CC1` gave an RP-LC retention time of 796 s.
Turning to `CN1CCC(N2CCN(S(=O)(=O)c3ccc(F)cc3)CC2)C1=O` (stereo not given), the RP-LC retention time came to 552 s.
As to `CCOc1ccccc1C1C(C(=O)OC)=C(C)NC2=C1C(=O)c1ccccc12` (stereo not given), the RP-LC retention time is 887 s.
The figure for `Cn1nc(-c2nc(-c3cccc(F)c3)no2)c2c1CCN(C(=O)NC(C)(C)C)C2` is 964 s; for `CC12CC(NC(=O)N1c1cccc(C(=O)N3CCOCC3)c1)c1ccccc1O2` (stereo not given) it is 663 s; for `Fc1ccccc1N1CCN(c2ncc3c(n2)CCN(Cc2ccc4c(c2)OCCO4)C3)CC1` it is 779 s.
`COc1ccccc1C(=O)N1CCC2(C1)C(=O)N(C)c1ccccc12` (stereo not given): the RP-LC retention time is 738 s.
`CCC(C)NS(=O)(=O)c1cc(-c2nnc(-c3ccccc3)o2)ccc1OC` (stereo not given) showed an RP-LC retention time of 955 s.
For `CCn1ccc(C(=O)N2c3ccccc3CC2c2nc(C3CC3)no2)n1` (stereo not given), the RP-LC retention time is 924 s.
As to `CCCCn1nc2c(S(=O)(=O)N3CCN(c4ccc(F)cc4)CC3)cccn2c1=O`, the RP-LC retention time amounted to 951 s.
In turn, `Cc1noc2nc(C)n(CC(=O)NC3CCCc4ccccc43)c(=O)c12` (stereo not given) registered an RP-LC retention time of 822 s.
`O=C(c1cnccn1)N1CC(F)(F)C[C@H]1c1nc(C2CC2)no1`: the RP-LC retention time was 746 s.
Take `Cc1ccc(CN2CCN(C3CCN(S(=O)(=O)c4cc(F)ccc4F)CC3)C(=O)C2=O)cc1`: the RP-LC retention time is 910 s.
In turn, `CCC(C)Sc1nnc(NC(=O)C2CCN(C(=O)c3ccccc3F)CC2)s1` (stereo not given) showed an RP-LC retention time of 871 s.
With `CCNc1cc(N2CCC(CCC(=O)NCc3ccccc3OC)CC2)ncn1`, the RP-LC retention time was determined as 650 s.
Consider `CCOc1ccc(NC(=O)c2cc3ccccc3cc2O)cc1`, for which the RP-LC retention time was found to be 1130 s.
The molecule `COC(=O)C1=CN(c2ccc(N(C)C)cc2)c2ccccc2S1(=O)=O` yielded an RP-LC retention time of 883 s.
`CSc1cccc(NC(=O)Cn2cccc2-c2nc(-c3ccccc3)no2)c1` came in with an RP-LC retention time of 1070 s.
With `COC(=O)c1cccc(-c2nc(C3CC(=O)N(c4ccc(F)c(Cl)c4)C3)no2)c1` (stereo not given) the figure was 1050 s; with `CCn1c(N2CCCC(C(=O)N3CCN(Cc4ccc5c(c4)OCO5)CC3)C2)cc(=O)n(C)c1=O` (stereo not given), 616 s; with `Nc1nnc(SCC(=O)Nc2nc(-c3ccccc3)cs2)s1`, 751 s.
In the case of `Cn1ncc2c3ccccc3n(CCCC(=O)NCc3ccccc3)c2c1=O`, the RP-LC retention time was determined as 810 s.
`CCCCn1cnc2c(-c3ccccc3)cn(CC(=O)Nc3ccccc3)c2c1=O` registered an RP-LC retention time of 1030 s.
Take `COc1ccc(NC(=O)c2c(N3CCCC3=O)c3cc(F)ccc3n2C)cc1`: the RP-LC retention time worked out at 922 s.
As for `Cc1cccc(-c2nnc(CC(=O)NCCC(C)C)o2)c1`, the RP-LC retention time was found to be 828 s.
`CN(CC1CCOCC1)S(=O)(=O)c1cccc(F)c1` registered an RP-LC retention time of 811 s.
`CC(=O)N1CCN(Cc2ccc([C@H](C)Nc3nccc(N4C(=O)OC[C@@H]4C(C)C)n3)cc2)CC1`: the RP-LC retention time was 642 s.
Molecule `Cn1nnc2c(N3CCN(S(=O)(=O)c4cccs4)CC3)ncnc21` displayed an RP-LC retention time of 726 s.
With `O=C(Nc1cc(-c2ccccn2)no1)c1cccc(Cl)c1` the figure was 870 s.
`Cc1csc(-c2cc(S(=O)(=O)NCCN3CCCC3)cn2CC(=O)N2CCCCC2)n1` registered an RP-LC retention time of 649 s.
For `Cc1nc(N)nc(Nc2ccc(C#N)cc2)c1Br`, the RP-LC retention time was 658 s.
`Cc1sc(NC(=O)c2ccco2)nc1-c1ccc2c(c1)N(C)C(=O)CO2`: the RP-LC retention time turned out to be 844 s.
Molecule `Cc1ccc(C2=NC3(CCN(C(=O)c4ccc5cc[nH]c5c4)CC3)ON2)cc1` had an RP-LC retention time of 755 s.
`COc1ccc(NC(=O)Cn2nc3cc(C)nc(N4CCCC4)n3c2=O)cc1` showed an RP-LC retention time of 709 s.
With `CCC(=O)Nc1nc(-c2ccc3c(c2)N(C)C(=O)CO3)cs1` the figure was 752 s; with `CC1CCN(S(=O)(=O)c2ccc3c(c2)CCCC(=O)N3CC(=O)N2CCCC2)CC1`, 819 s.
In turn, `CCN(CC)c1ccc(NC(=O)Cn2cnc3c(sc4nc(-c5ccccc5)ccc43)c2=O)c(C)c1` displayed an RP-LC retention time of 723 s.
Turning to `CCCS(=O)(=O)NCc1ccc2c(c1)CCN2C(=O)c1cccc(C)c1`, the RP-LC retention time turned out to be 899 s.
As to `Cc1cc2c(cc1CNC(=O)Cn1c(C)c(C#N)c3ccccc31)OCCCO2`, the RP-LC retention time was 894 s.
`COCCn1cc(CCNC(=O)Nc2ccc(F)cc2F)c2cccnc21` had an RP-LC retention time of 729 s.
With `O=C(Cn1c(=O)c2cccn2c2ccc(F)cc21)NC1CCCCC1`, the RP-LC retention time is 850 s.
For `O=C(c1cc(-c2ccccn2)n[nH]1)N1CCN(C(=O)C2CCCCC2)CC1`, the RP-LC retention time turned out to be 659 s.
In turn, `CN(CC1(C)CCOCC1)C(=O)NCc1ccco1` had an RP-LC retention time of 649 s.
On to `COc1cc(NC(=O)Cn2cccc2-c2nnc(C3CCC3)o2)cc(OC)c1`, for which the RP-LC retention time is 876 s.
For the molecule `Nc1ccccc1C(=O)NC(=O)Nc1ccc(Oc2ncc(Br)cn2)c(Cl)c1`, the RP-LC retention time amounted to 946 s.
In turn, `CCCN(C(=O)Cc1ccccc1)c1nc(-c2ccccc2)cs1` gave an RP-LC retention time of 1320 s.
The molecule `COc1cccc2nc3cc(C)c(C)cc3nc12` showed an RP-LC retention time of 868 s.
Turning to `Cc1cccc(CC(=O)N2C[C@@H]3C[C@H]2C[C@@H]3NS(C)(=O)=O)c1`, the RP-LC retention time came out at 673 s.
The molecule `Cc1ccccc1NC(=O)Cn1nc2c(N(C)C3CCCCC3)nccn2c1=O` displayed an RP-LC retention time of 745 s.
The figure for `CC(NC(=O)COc1ccccc1)C(=O)N1CCN(c2ccccn2)CC1` (stereo not given) is 602 s; for `CCOc1ccc(C(=O)N2CCCC2c2nc(-c3ccc(OC)cc3)no2)cc1` (stereo not given) it is 886 s.
In the case of `O=C(NCCn1nc(-n2cccn2)ccc1=O)c1cc2ccccc2o1`, the RP-LC retention time came to 669 s.
With `CN1C(=O)N(C)C2(CCN(C(=O)Cc3ccc(Cl)cc3)CC2)C1=O`, the RP-LC retention time is 686 s.
In the case of `O=C(NC1CCCCCC1)C1CCc2sc(C(=O)N3CCOCC3)cc2C1` (stereo not given), the RP-LC retention time worked out at 789 s.
The molecule `CC(C)c1ccc(NC(=O)C2CCN(c3cncnc3N3CCOCC3)CC2)cc1` showed an RP-LC retention time of 714 s.
`O=C(Nc1ccc(S(=O)(=O)N2CC3CC(C2)c2cccc(=O)n2C3)cc1)C1CC1` (stereo not given) showed an RP-LC retention time of 631 s.
`Cc1nc(-c2ccc(F)cc2)sc1C(=O)N1CCC(C(C)C(=O)NC2CC2)CC1` (stereo not given) gave an RP-LC retention time of 747 s.
